Several values for one entry are separate records, joined by “and”; a condition that tells them apart may be missing. Identical values can stand only once. Entries after “also recorded” stand apart in the source; their conditions may differ. Ends that are not written are not given here.
What was measured:
pilocarpine model = test: Pilocarpine model, oral pre-treatment (salivation, first signal, seizure, death/survival); assay type: in vivo, Mus musculus; design: time of occurrence of the first seizure: unit not given here; details: for neuroprotection, survival/death profile after 24 hours: FIG. 7, 600 μg/kg, n=5 per group, compared with SEQ ID No. 1; for time of occurrence of the first salivation: Table 1; for time of occurrence of the first salivation / time of occurrence of the first signal / time of occurrence of the first seizure / time of death occurrence: oral, 10 minutes prior to pilocarpine 320 mg/kg i.p., individual animals; for time of occurrence of the first signal: Table 2; for time of occurrence of the first seizure: Table 3; for time of death occurrence: Table 4
Method: In some examples, the neuromodulatory/neuroprotective/anticonvulsive effects of the composition of the invention have been evaluated in vivo by oral administration to animals. The pharmaceutical composition of the invention was administered to mammals (Mus musculus or mouse) with an oral dose of treatment with different embodiments of the compound of the invention, compared to other compounds or to saline control. In these experiments, the test compounds were administered orally 10 minutes prior to (intraperitoneal) administration of pilocarpine. Pilocarpine hydrochloride (320 mg/kg, Merck), dissolved in 0.9% sterile saline, was given intraperitoneally for induction of SE (status epileticus) (Turski et al., 1983). In the Turski model, the neurotoxic effects begin about 15-25 minutes after the injection of Pilo, with the occurrence of motor and limbic seizures, the animals evolving to a state of continuous (clonic) seizures that characterize SE Sanabria and Cavalheiro, 2000).
In this embodiment, the anticonvulsive effect of the composition of the invention prepared according to Example 2 was evaluated by prior administration of the inventive composition and subsequent administration of pilocarpine to animals. FIG. 4 presents the results of the pilocarpine model, indicating the time for the first salivation with the administration of control, cannabidiol (30 mg/kg), the compound of the invention R1-N-AA1-K-AA2-R2, in which embodiment is the tetrapeptide of SEQ ID No. 1 (500 μg/kg).
In this embodiment, the neuromodulatory effect of the composition of the invention prepared according to Example 2 was evaluated by prior administration of the inventive composition and subsequent administration of pilocarpine to animals. Other test compounds were also evaluated as described below. Administration of pilocarpine leads to severe brain injury, neurotoxicity and usually culminates in the death of the animals. This substance was used in the experiments described below but its harmful neuronal/encephalic effects were inhibited by the prior administration of the composition of the present invention: the vast majority of the animals subjected to these experiments had no symptoms related to brain lesions and survived without apparent damage, in contrast to groups of animals treated with other known substances.
The composition of the invention was prepared according to Example 2 with due concentration correction, for comparison of the effects of SEQ ID No. 1, SEQ ID No. 7 and NFK, such compounds having been previously administered to the animal groups.
In this embodiment, the anticonvulsant effect of different embodiments of the compound of the invention with the structure represented by SEQ ID No. 1, SEQ ID No. 7, NFK, FKF, FKL, as well as the NF, FK, KF and KL dipeptides were evaluated in the pilocarpine model.

[1] = biological target: CB1 receptor in Striatum membranes; test: ELISA on Striatum membranes: CB1 recognition by conformation-sensitive anti-CB1 antibody after incubation with 1 µM ligand; assay 1
Chain of CB1 receptor in Striatum membranes (P21554 whole entry): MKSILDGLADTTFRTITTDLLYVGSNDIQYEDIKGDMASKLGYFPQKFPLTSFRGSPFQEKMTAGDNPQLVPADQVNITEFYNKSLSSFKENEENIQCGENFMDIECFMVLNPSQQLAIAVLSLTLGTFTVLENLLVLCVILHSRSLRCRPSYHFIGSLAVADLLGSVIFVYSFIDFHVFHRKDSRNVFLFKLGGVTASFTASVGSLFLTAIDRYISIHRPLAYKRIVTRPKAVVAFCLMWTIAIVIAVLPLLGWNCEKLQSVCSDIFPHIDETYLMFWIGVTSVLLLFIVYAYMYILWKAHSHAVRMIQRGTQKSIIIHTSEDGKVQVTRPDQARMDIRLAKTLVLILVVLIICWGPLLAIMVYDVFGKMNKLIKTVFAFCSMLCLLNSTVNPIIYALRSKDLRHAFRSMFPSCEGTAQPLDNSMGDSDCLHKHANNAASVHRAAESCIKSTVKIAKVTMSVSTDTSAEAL

[2] = biological target: CB1 receptor in Striatum membranes; test: ELISA on Striatum membranes: CB1 recognition by conformation-sensitive anti-CB1 antibody after incubation with 1 µM ligand; assay 3
[3] = biological target: CB1 receptor in Striatum membranes; test: ELISA on Striatum membranes: CB1 recognition by conformation-sensitive anti-CB1 antibody after incubation with 1 µM ligand; assay 4
[4] = biological target: CB1 receptor in Striatum membranes; test: ELISA on Striatum membranes: CB1 recognition by conformation-sensitive anti-CB1 antibody after incubation with 1 µM ligand; assay 2
[5] = biological target: CB1 receptor in Striatum membranes; test: ELISA on Striatum membranes: CB1 recognition by conformation-sensitive anti-CB1 antibody after incubation with 1 µM ligand; assay 5
CB1 receptor = test: Screening with anti-CB1 antibodies sensitive to activation/conformational changes, ELISA on Striatum membranes; assay type: binding; details: ligands 1 μM, Assay 1-5
Method: Antibodies sensitive to CB1 receptor activation were generated and characterized by their specificities. For screening compounds, Striatum membranes (5 μg per well) were plated on NUNC-Immuno 96-well plates (Nalge-Nunc) and dried at room temperature. Membranes were washed with PBS (phosphate buffered saline) and incubated with or without different ligands (1 μM) and the extent of receptor recognition by the antibodies was measured by ELISA. The results of the tests are shown in Table 5, which indicates the % binding to the CB1 receptor in relation to control: […]

pain threshold = test: Pain threshold model, pressure apparatus on right paw; assay type: in vivo, rats; details: oral, 0.5 to 0.25 mg/kg, individual animals
Method: The compounds of the present invention have also been tested as analgesics or neuropathic pain modulators. To that end, the compounds PVNFKF, PVNFK, VNFKF, SEQ ID No. 1 were tested in the pain threshold model. The pain threshold was measured using a pressure apparatus (Ugo Basile, Italy), essentially as described (Randall and Selitto, 1957). Briefly, a force of increasing magnitude (16 g/s) was applied to the back of the right paw of rats. When animals react by kicking, the force in grams required to induce this response is the threshold of pain. Antinoniceptive activity was expressed as the increase in pain threshold compared to control animals.
The compounds of the invention were administered orally to the animals at doses of 0.5 to 0.25 mg/kg and saline was used as a control.

human CB1 receptor = biological target: T1, human CB1 receptor (Homo sapiens, UniProt P21554); test: In vitro radioligand binding, [3H] CP 55940, recombinant CHO cells; details: reference radioligand agonist
T1 construct: expressed in transfected cells; host or cells: CHO cells
T1 sequence (P21554 whole entry): as above
Method: In vitro binding assays were performed using recombinant CHO cells expressing the human CB1 receptor and the [3H]
Results are expressed as the percentage of binding of the specific control according to formula: […]
And the percentual inhibition of binding of specific control obtained in the presence of the compound of the invention is:
IC50 values (concentration that causes half of maximal inhibition of specific control binding) and Hill (nH) coefficients were determined by nonlinear regression of the competition curves generated with the mean values of the replicates using the Hill equation:
Where Y=specific binding, A=asymptotic left of curve, D=asymptotic right of curve, C=compound concentration, C50=IC50 and nH=curve coefficient/slope factor. This analysis was performed using the Hill software validated by comparison with data generated by Sigmaplot 4.0 software. Inhibition constants (Ki) were calculated using the equation of Chen Prusoff:
Where L=concentration of the radioligand in the assay; KD=affinity of the radioligand for the receptor. A graph is used to determine the KD.

[6] = Stability tests under extreme conditions (freezing 24 hours; heating at 100° C. for 10 minutes), HPLC; assay type: physicochemical
Text: In the vertical axis the area of the HPLC peak is shown. […] Statistical significance data are also shown, the asterisks indicating: (*) P<0.05 vs Control (***) P<0.005 vs Control; (****) P<0.0001 vs Control.

[7] = biological target: T2, recombinant human CB2 cannabinoid receptor (human, UniProt P34972 1-360); test: [3H]WIN 55212-2 radioligand displacement on CHO cells expressing human CB2
T2 construct: whole, on cells; also called human CB2 receptor
T2 sequence (P34972 whole entry): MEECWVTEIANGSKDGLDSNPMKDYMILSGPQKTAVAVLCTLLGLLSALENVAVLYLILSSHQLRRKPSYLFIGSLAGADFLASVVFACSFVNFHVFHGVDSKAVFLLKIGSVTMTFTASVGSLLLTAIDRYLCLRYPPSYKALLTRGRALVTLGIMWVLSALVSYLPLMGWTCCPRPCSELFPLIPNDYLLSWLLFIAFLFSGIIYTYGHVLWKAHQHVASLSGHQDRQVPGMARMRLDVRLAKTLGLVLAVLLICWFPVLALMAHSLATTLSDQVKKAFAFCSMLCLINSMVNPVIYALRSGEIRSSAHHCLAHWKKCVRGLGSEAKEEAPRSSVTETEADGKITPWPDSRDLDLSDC
Method: In vitro binding assays were performed using recombinant CHO cells expressing human CB2 receptor and [3H]

[8] = heating at 100° C. for 10 minutes

C=C(C)[C@@H]1CCC(C)=C[C@H]1c1c(O)cc(CCCCC)cc1O [cannabidiol, reference compound]
time for first salivation vs control (significance) (pilocarpine model; FIG. 4, cannabidiol 30 mg/kg, SEQ ID No. 1 500 μg/kg): does not present statistical significance
prostration and nasal bleeding (pilocarpine model; SEQ ID No. 1 500 μg/kg, cannabidiol 30 mg/kg): both prostration and the nasal bleeding was observed; also recorded: both prostration and bleeding were observed

VDHp (peptide)
% binding to the CB1 receptor in relation to control [1]: 116 % of control
% binding to the CB1 receptor in relation to control [2]: 131 % of control
% binding to the CB1 receptor in relation to control [3]: 129 % of control
% binding to the CB1 receptor in relation to control [4]: 114 % of control
% binding to the CB1 receptor in relation to control [5]: 113 % of control

NFK
neuroprotection, survival/death profile after 24 hours (pilocarpine model): equivalent to those obtained with SEQ ID No. 1
occurrence of first salivation (in words) (pilocarpine model; FIG. 8): inhibited or delayed the occurrence of first salivation
time of occurrence of the first salivation (pilocarpine model): 1.38 min and 0.75 min and 0.42 min and 0.98 min
time of occurrence of the first signal (pilocarpine model): 6.28 min and 8.92 min and 4.83 min and 7.82 min
time of occurrence of the first seizure (pilocarpine model): 13.38 and 11.33 and 9.67 and 8 and 9.93
time of death occurrence (pilocarpine model): 16.83 min and 13.53 min and 11.7 min and 10.92 min and 10.87 min

RVDHp: N-extended version of hemopressin, RVD-Hp (pepcan 12) (RVDPVNFKLLSH; Hemoglobin subunit alpha; UniProt P69905 93-104, looked up, fragment)
% binding to the CB1 receptor in relation to control (CB1 receptor): 103.39% and 111.53% and 110.87% and 114.76% and 105.22%

Cc1c(C(=O)c2cccc3ccccc23)c2cccc3c2n1[C@H](CN1CCOCC1)CO3 [WIN 55212-2]
% binding to the CB1 receptor in relation to control (CB1 receptor; listed as Win): 111.483% and 117.95% and 125.56% and 127.52% and 122.49%

FKF
time of occurrence of the first salivation (pilocarpine model): 0.38 min and 0.95 min and 0.50 min and 1.50 min
time of occurrence of the first signal (pilocarpine model): 5.3 min and 6.35 min and 8.33 min and 8.82 min
time of occurrence of the first seizure (pilocarpine model): 10.25 and 6.28 and 8.92 and 3.83 and 7.82
time of death occurrence (pilocarpine model): 12.9 min and 13.17 min and 20.67 min and 16.67 min and 13.5 min

RVDHp (peptide)
% binding to the CB1 receptor in relation to control [1]: 103 % of control
% binding to the CB1 receptor in relation to control [2]: 111 % of control
% binding to the CB1 receptor in relation to control [3]: 115 % of control
% binding to the CB1 receptor in relation to control [4]: 112 % of control
% binding to the CB1 receptor in relation to control [5]: 105 % of control

PVNFK [reference compound]
pain threshold, force (pain threshold; After 3 h): 55 grams (2×) and 45 grams and 40 grams (2×) and 60 grams
pain threshold, force (pain threshold; Immediate): 70 grams and 75 grams (3×) and 65 grams and 60 grams

PVNFKF [reference compound]
pain threshold, force (pain threshold; After 3 h): 45 grams (2×) and 30 grams and 55 grams (2×) and 65 grams
pain threshold, force (pain threshold; Immediate): 75 grams (2×) and 65 grams and 60 grams and 70 grams and 80 grams

CCCCCCC(C)(C)c1ccc([C@@H]2C[C@H](O)CC[C@H]2CCCO)c(O)c1 [CP 55940, reference compound]
nH (human CB1 receptor): 1

SEQ ID No. 7: tetrapeptide of SEQ ID No. 7, embodiment of R1-N-AA1-K-AA2-R2; sequence not printed in the text (NFKL; Synthesized in laboratory)
neuroprotection, survival/death profile after 24 hours (pilocarpine model): even better than those obtained with SEQ ID No. 1
time of occurrence of the first salivation (pilocarpine model): 1.25 min (2×) and 1.183 min and 1.067 min and 2.45 min
time of occurrence of the first signal (pilocarpine model): 10.25 min and 9.317 min and 10.17 min (2×) and 3.83 min
time of occurrence of the first seizure (pilocarpine model): 15.33 (2×) and 18.4 and 30 and 27.3
time of death occurrence (pilocarpine model): 26.63 min and 25.13 min and 13.5 min

VNFKF
pain threshold, force (pain threshold; After 3 h): 85 grams and 40 grams and 35 grams and 50 grams (3×)
pain threshold, force (pain threshold; Immediate): 70 grams (2×) and 65 grams (2×) and 75 grams (2×)

FKL
time of occurrence of the first salivation (pilocarpine model): 0.333 min and 1.6 min and 0.2 min and 0.633 min and 1.5 min
time of occurrence of the first signal (pilocarpine model): 9.17 min and 5.67 min and 9.5 min and 8.5 min and 4.5 min
time of occurrence of the first seizure (pilocarpine model): 5.3 and 6.35 and 4.83 and 8.82
time of death occurrence (pilocarpine model): 14.53 min and 11.7 min and 10.92 min

CC(C)C[C@H](NC(=O)[C@H](Cc1ccccc1)NC(=O)[C@H](CCCCN)NC(=O)[C@H](Cc1ccccc1)NC(=O)[C@H](CC(N)=O)NC(=O)[C@@H](NC(=O)[C@@H]1CCCN1)C(C)C)C(=O)N[C@@H](CO)C(=O)N[C@@H](Cc1cnc[nH]1)C(=O)O [Hp, hemopressin]
% binding to the CB1 receptor in relation to control (CB1 receptor): 91.33% and 92.74% and 97.05% and 90.23% and 73.49%
area of the HPLC peak, control ([6]; control sample, n=2): 140
area of the HPLC peak after freezing ([6]; freezing for 24 h): 97
part lost or degraded by freezing ([6]; freezing for 24 h): approximately 31%
area of the HPLC peak after heating [6, 8]: 50
part lost or degraded upon heating [6, 8]: approximately 64.3%

PVNFKFLSH [hemopressin]
% binding to the CB1 receptor in relation to control [1]: 91.3 % of control
% binding to the CB1 receptor in relation to control [2]: 97 % of control
% binding to the CB1 receptor in relation to control [3]: 90.2 % of control
% binding to the CB1 receptor in relation to control [4]: 92.7 % of control
% binding to the CB1 receptor in relation to control [5]: 73.5 % of control

NFKF (also: biotin, position not given here) [SEQ ID No. 1-Biotin]
% binding to the CB1 receptor in relation to control [1]: 89.2 % of control
% binding to the CB1 receptor in relation to control [2]: 83.3 % of control
% binding to the CB1 receptor in relation to control [3]: 84.8 % of control
% binding to the CB1 receptor in relation to control [4]: 85.5 % of control
% binding to the CB1 receptor in relation to control [5]: 97.5 % of control

B1: tetrapeptide SEQ ID No. 1 (peptide)
peptide: NFKF
notes: Synthetic peptide; for the radioligand assays it was a 10 mM stock solution in DMSO
binding result [7]: no binding (tested: 1 and 10 µM)

Reference: patent US20220098237A1, “COMPOUND, SYNTHESIS INTERMEDIATE, USE, PHARMACEUTICAL COMPOSITION AND NEUROMODULATORY THERAPEUTIC METHOD” (Remer Consultores Assessoria Empresarial Ltda, priority 2017, published 2022)
